Measurements taken from patent US20070059632A1, “Method of manufacturing a semiconductor device” (priority 2003, published 2007).

Key:
Type in all cases: physicochemical
[1] = Inhibition of dissolution in alkali developing solution; design: key: A: no change was visually noticed in the state of film; C: the surface was roughened or a part of the film was lost because of dissolution; settings: resist film immersed in 2.38% aqueous solution of TMAH for 3 min
Description: (3) Inhibition of Dissolution in Alkali Developing Solution
The resist film formed in the evaluation 2 was immersed in a developing solution (2.38% aqueous solution of TMAH) for 3 min. The results were rated as “A” when no change was visually noticed in the state of film, and “C” when the surface was roughened or a part of the film was lost because of dissolution.

[2] = Solubility of compound in safety solvent; settings: safety solvent (PGMEA or EL) at 23° C.
Description: (1) Solubility of Compound in Safety Solvent
Each compound was tested for its solubility in safety solvent (PGMEA or EL) at 23° C. The solubility was rated as “A” when dissolved in an amount of 5% by weight or more, “B” when dissolved in an amount of 0.1% by weight or more but less than 5% by weight, and “C” when not dissolved in an amount of 0.1% by weight or more.

Alkali developability = assay: Alkali developability; design: key: A: the resist film dissolved completely and disappeared; C: the resist film remained not dissolved even in a slight amount; settings: tested on the corresponding polyphenol compound A before introducing the acid-dissociating group; film immersed in 2.38% aqueous TMAH for 10 s
Description: (5) Alkali Developability
A polyphenol compound A corresponding to each compound before introducing the acid-dissociating functional group was examined for its developability with an alkali developing solution.
A 10% by weight solution of each polyphenol compound A in PGMEA was spin-coated using a spin coater, to form a resist film of about 0.2 μm thick. After heating on a hot plate for 3 min at 110° C., the resist film was immersed in a 2.38% aqueous solution of TMAH for 10 s. The results were rated as “A” when the resist film dissolved completely and disappeared, and “C” when the resist film remained not dissolved even in a slight amount.

(3) Inhibition of dissolution in developing solution [1]: A
(5) Alkali developability (Alkali developability): A
SMILES: Cc1cc(C(C)(c2ccc(OC(=O)OC(C)(C)C)c(C)c2)c2ccc3ccccc3c2)ccc1O (stereo not drawn) [Compound 5-2]
(1) Solubility in safety solvent [2]: A (dissolved in an amount of 5% by weight or more)
